Test results taken from patent US20150344444A1, “BET-PROTEIN-INHIBITING DIHYDROXYQUINOXALINONES” (BAYER PHARMA AKTIENGESELLSCHAFT, priority 2012, published 2015).

Legend:
[1] = biological target: T1, BRD4 Bromo Domain 1 [BRD4(1)] (Homo sapiens, UniProt O60885); assay: BRD4(1)/acetylated peptide H4 binding assay (TR-FRET); settings: inhibition of interaction between His6-tagged BRD4(1) (amino acids 67-152) and acetylated histone H4 peptide
T1 construct: N-terminally His6-tagged BRD4(1) (amino acids 67-152); made in house; host or cells: E. coli
Description: Protein-Protein Interaction Assay: BRD4/Acetylated Peptide H4 Binding Assay
1. Assay Description for BRD4 Bromo Domain 1 [BRD4(1)]
To assess the BRD4(1) binding strength of the substances described in this application, the ability thereof to inhibit the interaction between BRD4(1) and acetylated histone H4 in a dose-dependent manner was quantified.
For this purpose, a time-resolved fluorescence resonance energy transfer (TR-FRET) assay was used, which measures the binding between N-terminally His6-tagged BRD4(1) (amino acids 67-152) and a synthetic acetylated histone H4 (Ac-H4) peptide with sequence GRGK(Ac)GGK(Ac)GLGK(Ac)GGAK(Ac)RHGSGSK-biotin. The recombinant BRD4(1) protein produced in house according to Filippakopoulos et al., Cell, 2012, 149:214-231 was expressed in E. coli and purified by means of (Ni-NTA) affinity and (Sephadex G-75) size exclusion chromatography. The Ac-H4 peptide can be purchased, for example, from Biosyntan (Berlin, Germany).
In the assay, typically 11 different concentrations of each substance (0.1 nM, 0.33 nM, 1.1 nM, 3.8 nM, 13 nM, 44 nM, 0.15 μM, 0.51 μM, 1.7 μM, 5.9 μM and 20 μM) were analysed as duplicates on the same microtitre plate. For this purpose, 100-fold concentrated solutions in DMSO were prepared by serial dilutions (1:3.4) of a 2 mM stock solution into a clear, 384-well microtitre plate (Greiner Bio-One, Frickenhausen, Germany). From this, 50 nl were transferred into a black test plate (Greiner Bio-One, Frickenhausen, Germany). The test was started by the addition of 2 μl of a 2.5-fold concentrated BRD4(1) solution (final concentration typically 10 nM in the 5 μl of reaction volume) in aqueous assay buffer [50 mM HEPES pH 7.5, 50 mM sodium chloride (NaCl), 0.25 mM CHAPS and 0.05% serum albumin (BSA)] to the substances in the test plate. This was followed by a 10-minute incubation step at 22° C. for the pre-equilibration of putative complexes between BRD4(1) and the substances.
The mixture was then incubated in the dark at 22° C. for one hour and then at 4° C. for at least 3 hours and for no longer than overnight. The formation of BRD4(1)/Ac-H4 complexes was determined by the measurement of the resonance energy transfer from the streptavidin-Eu cryptate to the anti-6His-XL665 antibody present in the reaction. For this purpose, the fluorescence emission was measured at 620 nm and 665 nm after excitation at 330-350 nm in a TR-FRET measuring instrument, for example a Rubystar or Pherastar (both from BMG Lab Technologies, Offenburg, Germany) or a Viewlux (Perkin-Elmer). The ratio of the emissions at 665 nm and at 622 nm was taken as an indicator of the amount of BRD4(1)/Ac-H4 complexes formed.
The data (ratios) obtained were normalized, with 0% inhibition corresponding to the mean from the measurements for a set of controls (typically 32 data points) in which all the reagents were present. In these, in place of test substances, 50 nl of DMSO (100%) were used Inhibition of 100% corresponded to the mean from the measurements for a set of controls (typically 32 data points) in which all the reagents except BRD4(1) were present. The IC50 was determined by regression analysis based on a 4-parameter equation (minimum, maximum, IC50, Hill; Y=max+(min−max)/(1+(X/IC50)Hill).

B16F10 cells = assay: B16F10 cell proliferation assay (alamarBlue); type: cell-based; settings: B16-F10; inhibition of cell proliferation, 96 hours, mouse melanoma cell line
Protocol: In accordance with the invention, the ability of the substances to inhibit cell proliferation was determined Cell viability was determined by means of the alamarBlue® reagent (Invitrogen) in a Victor X3 Multilabel Reader (Perkin Elmer). The excitation wavelength was 530 nm and the emission wavelength […].
The B16F10 cells (ATCC, CRL-6475) were sown at a concentration of 300-500 cells/well in 100 μl of growth medium (DMEM with phenol red, 10% FCS) on 96-well microtitre plates.
After overnight incubation at 37° C., the fluorescence values were determined (CI values). Then the plates were treated with various substance dilutions (1E-5 M, 3E-6 M, 1E-6 M, 3E-7 M, 1E-7 M, 3E-8 M, 1E-8 M) and incubated at 37° C. over 96 hours (MOLM-13, B16F10 cells) or 120 hours (MOLP-8 cells). Subsequently, the fluorescence values were determined (CO values). For the data analysis, the CI values were subtracted from the CO values and the results were compared between cells which had been treated with various dilutions of the substance or only with buffer solution. The IC50 values (substance concentration needed for 50% inhibition of cell proliferation) were calculated therefrom.
B16F10 mouse melanoma cell line

IC50 [1] [nM]	IC50 (B16F10 cells) [nM]	Compound
105	256	COc1ccc(CN2c3cc(Nc4ccc(C(=O)N5CC6(COC6)C5)cc4)ccc3N(C)C(=O)[C@H]2C)cc1 [Example 20, (3R)-4-(4-methoxybenzyl)-1,3-dimethyl-6-{[4-(2-oxa-6-azaspiro[3.3]hept-6-ylcarbonyl)phenyl]amino}-3,4-dihydroquinoxalin-2(1H)-one]
108	403	COc1ccc(CN2c3cc(Nc4ccc(C(=O)NCCN5CCN(C)CC5)cc4)ccc3N(C)C(=O)[C@H]2C)cc1 [Example 21, 4-{[(3R)-4-(4-methoxybenzyl)-1,3-dimethyl-2-oxo-1,2,3,4-tetrahydroquinoxalin-6-yl]amino}-N-[2-(4-methylpiperazin-1-yl)ethyl]benzamide]
175	522	COc1ccc(CN2c3cc(Nc4ccc(C(=O)N5CCN(C(C)C)CC5)cc4)ccc3N(C)C(=O)[C@H]2C)cc1 [Example 22, (3R)-4-(4-methoxybenzyl)-1,3-dimethyl-6-[(4-{[4-(propan-2-yl)piperazin-1-yl]carbonyl}phenyl)amino]-3,4-dihydroquinoxalin-2(1H)-one]
176	1960	C[C@@H]1C(=O)N(C)c2ccc(Nc3ccc(C(=O)NC4CCN(C)CC4)cc3)cc2N1C1CCCCCC1 [Example 23, 4-{[(3R)-4-cycloheptyl-1,3-dimethyl-2-oxo-1,2,3,4-tetrahydroquinoxalin-6-yl]amino}-N-(1-methylpiperidin-4-yl)benzamide]
143	732	C[C@@H]1C(=O)N(C)c2ccc(Nc3ccc(C(=O)N4CCOCC4)cc3)cc2N1C1CCCCCC1 [Example 24, (3R)-4-cycloheptyl-1,3-dimethyl-6-{[4-(morpholin-4-ylcarbonyl)phenyl]amino}-3,4-dihydroquinoxalin-2(1H)-one]
374	4010	C[C@@H]1C(=O)N(C)c2ccc(Nc3ccc(C(=O)NC4CCN(C)CC4)cc3)cc2N1C1CCOCC1 [Example 26, 4-{[(3R)-1,3-dimethyl-2-oxo-4-(tetrahydro-2H-pyran-4-yl)-1,2,3,4-tetrahydroquinoxalin-6-yl]amino}-N-(1-methylpiperidin-4-yl)benzamide]
230	2490	C[C@@H]1C(=O)N(C)c2ccc(Nc3ccc(C(=O)N4CCOCC4)cc3)cc2N1C1CCOCC1 [Example 27, (3R)-1,3-dimethyl-6-{[4-(morpholin-4-ylcarbonyl)phenyl]amino}-4-(tetrahydro-2H-pyran-4-yl)-3,4-dihydroquinoxalin-2(1H)-one]
366	2830	C[C@@H]1C(=O)N(C)c2ccc(Nc3ccc(C(=O)NCC4COC4)cc3)cc2N1C1CCOCC1 [Example 28, 4-{[(3R)-1,3-dimethyl-2-oxo-4-(tetrahydro-2H-pyran-4-yl)-1,2,3,4-tetrahydroquinoxalin-6-yl]amino}-N-(oxetan-3-ylmethyl)benzamide]
185	2710	C[C@@H]1C(=O)N(C)c2ccc(Nc3ccc(C(=O)N4CC5(COC5)C4)cc3)cc2N1C1CCOCC1 [Example 29]
384	2680	C[C@@H]1C(=O)N(C)c2ccc(Nc3ccc(C(=O)NCCN4CCN(C)CC4)cc3)cc2N1C1CCOCC1 [Example 30, 4-{[(3R)-1,3-dimethyl-2-oxo-4-(tetrahydro-2H-pyran-4-yl)-1,2,3,4-tetrahydroquinoxalin-6-yl]amino}-N-[2-(4-methylpiperazin-1-yl)ethyl]benzamide]
192	3240	C[C@@H]1C(=O)N(C)c2ccc(Nc3ccc(C(=O)N4CC5(CCS5(=O)=O)C4)cc3)cc2N1C1CCOCC1 [Example 31, (3R)-6-({4-[(1,1-dioxido-1-thia-6-azaspiro[3.3]hept-6-yl)carbonyl]phenyl}amino)-1,3-dimethyl-4-(tetrahydro-2H-pyran-4-yl)-3,4-dihydroquinoxalin-2(1H)-one]
371	6420	CC(=O)N1CCC(NC(=O)c2ccc(Nc3ccc4c(c3)N(C3CCOCC3)[C@H](C)C(=O)N4C)cc2)CC1 [Example 32, N-(1-acetylpiperidin-4-yl)-4-{[(3R)-1,3-dimethyl-2-oxo-4-(tetrahydro-2H-pyran-4-yl)-1,2,3,4-tetrahydroquinoxalin-6-yl]amino}benzamide]
310	1750	CC(C)N1CCN(C(=O)c2ccc(Nc3ccc4c(c3)N(C3CCOCC3)[C@H](C)C(=O)N4C)cc2)CC1 [Example 33]
511	3570	C[C@@H]1C(=O)N(C)c2ccc(Nc3ccc(C(=O)NC4CN(C)C4)cc3)cc2N1C1CCOCC1 [Example 34, 4-{[(3R)-1,3-dimethyl-2-oxo-4-(tetrahydro-2H-pyran-4-yl)-1,2,3,4-tetrahydroquinoxalin-6-yl]amino}-N-(1-methylazetidin-3-yl)benzamide]
365	2400	C[C@@H]1C(=O)N(C)c2ccc(Nc3ccc(C(=O)NC4CC4)cc3)cc2N1C1CCOCC1 [Example 35, N-cyclopropyl-4-{[(3R)-1,3-dimethyl-2-oxo-4-(tetrahydro-2H-pyran-4-yl)-1,2,3,4-tetrahydroquinoxalin-6-yl]amino}benzamide]
482	2090	COc1cc(C(=O)NC2CCN(C)CC2)ccc1Nc1ccc2c(c1)N(C1CCOCC1)[C@H](C)C(=O)N2C [Example 36, 4-{[(3R)-1,3-dimethyl-2-oxo-4-(tetrahydro-2H-pyran-4-yl)-1,2,3,4-tetrahydroquinoxalin-6-yl]amino}-3-methoxy-N-(1-methylpiperidin-4-yl)benzamide]
422	1510	COc1cc(C(=O)NC2CCC(N3CCN(CC4CC4)CC3)CC2)ccc1Nc1ccc2c(c1)N(C1CCOCC1)[C@H](C)C(=O)N2C (stereo partly drawn) [Example 37, N-{4-[4-(cyclopropylmethyl)piperazin-1-yl]cyclohexyl}-4-{[(3R)-1,3-dimethyl-2-oxo-4-(tetrahydro-2H-pyran-4-yl)-1,2,3,4-tetrahydroquinoxalin-6-yl]amino}-3-methoxybenzamide]
272	1780	COc1cc(C(=O)N2CCN(C)CC2)ccc1Nc1ccc2c(c1)N(C1CCOCC1)[C@H](C)C(=O)N2C [Example 38, (3R)-6-({2-methoxy-4-[(4-methylpiperazin-1-yl)carbonyl]phenyl}amino)-1,3-dimethyl-4-(tetrahydro-2H-pyran-4-yl)-3,4-dihydroquinoxalin-2(1H)-one]
183	175	COc1ccc(CN2c3cc(Nc4ccc(S(=O)(=O)N(C)C)cc4)ccc3N(C)C(=O)[C@H]2C)cc1 [Example 41, 4-{[(3R)-4-(4-methoxybenzyl)-1,3-dimethyl-2-oxo-1,2,3,4-tetrahydroquinoxalin-6-yl]amino}-N,N-dimethylbenzenesulphonamide]
